From ChEMBL document CHEMBL1159332, “Equilibrating isomers: bromoindoles and a seco-xanthine encountered during a study of nematocides from the southern Australian marine sponge Hymeniacidon sp” (2002) come the findings set out here.

The source made the active and inactive calls. The calls are words filed in the database; no cut-off is given here.

In this assay the test system is Haemonchus contortus. The assay can be described thus: Nematocidal activity against Haemonchus contortus. The class given is functional.

The compound `CCOC(=O)/C=C/c1c[nH]c2cc(Br)ccc12` gave an LD99 of 42 µg/mL.

Regarding `CNc1c(N(C)C=O)c(=O)n(C)c(=O)n1C`, the outcome was inactive.

On to `COC(=O)/C=C/c1c[nH]c2cc(Br)ccc12`, for which the LD99 was determined as 50 µg/mL.

`COC(=O)/C=C\c1c[nH]c2cc(Br)ccc12`: the LD99 worked out at 50 µg/mL.

`CCOC(=O)/C=C\c1c[nH]c2cc(Br)ccc12`: the LD99 amounted to 42 µg/mL.
